Experiments:
Assay type in all cases: cell-based
[1] = biological target: T1, GLP-1R (Homo sapiens, UniProt P43220); experiment: GLP-1 activity test (cAMP, chemiluminescence); conditions: CHO-K1 cell line stably expressing GLP-1R; relative luminescence units; read-out: GLP-1 [EC50(pmol)]
T1 construct: expressed in transfected cells; host or cells: CHO-K1
Procedure: (§1) Upon stimulation by a specific agonist, GLP-1R activates the intracellular adenylate cyclase signaling pathway, resulting in an increase in cAMP levels and ultimately leading to insulin production and secretion. A cell line stably transfected with GLP-1R was stimulated with test compounds, thereby rapidly increasing intracellular cAMP levels. The relative luminescence units (RLU) of cells stimulated at various concentrations were measured by a chemiluminescence method, and the EC50 value of the agonist was calculated accordingly. This activity test method is currently a commonly used method for evaluating GLP-1 receptor agonist activity both domestically and internationally. A CHO-K1 cell line stably expressing GLP-1R was used. The stable cells were stimulated with agonists at different concentrations, and the relative luminescence units after stimulation at each concentration were measured to calculate the EC50 value of the agonist.

[2] = biological target: T2, GIPR (Homo sapiens, UniProt P48546); experiment: GIP activity test (cAMP, chemiluminescence); conditions: CHO-K1 cell line stably expressing GIPR; relative luminescence units; read-out: GIP [EC50(pmol)]
T2 construct: expressed in transfected cells; host or cells: CHO-K1
T2 sequence (P48546 22-466): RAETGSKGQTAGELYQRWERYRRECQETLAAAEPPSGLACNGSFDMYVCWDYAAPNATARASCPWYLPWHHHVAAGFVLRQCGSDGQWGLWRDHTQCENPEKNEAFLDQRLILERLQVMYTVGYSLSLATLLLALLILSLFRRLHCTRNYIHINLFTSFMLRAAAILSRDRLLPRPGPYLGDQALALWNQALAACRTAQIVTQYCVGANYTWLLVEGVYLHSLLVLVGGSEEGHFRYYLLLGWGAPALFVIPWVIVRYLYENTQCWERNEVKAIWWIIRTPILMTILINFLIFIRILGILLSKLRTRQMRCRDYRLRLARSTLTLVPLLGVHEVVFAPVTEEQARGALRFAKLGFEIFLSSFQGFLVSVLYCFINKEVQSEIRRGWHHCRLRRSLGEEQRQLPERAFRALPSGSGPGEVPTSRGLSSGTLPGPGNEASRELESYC
Procedure: as §1, with “agonist, GIPR” for “agonist, GLP-1R”, “with GIPR” for “with GLP-1R”, “activity assay” for “activity test”, “evaluating GIP” for “evaluating GLP-1”, “expressing GIPR” for “expressing GLP-1R”

[3] = biological target: T3, GCG-R (Homo sapiens, UniProt P47871); experiment: GCG activity test (cAMP, chemiluminescence); conditions: CHO-K1 cell line stably expressing GCG-R; relative luminescence units; read-out: GCG [EC50(pmol)]
T3 construct: expressed in transfected cells; host or cells: CHO-K1
Procedure: as §1, with “agonist, GCG-R” for “agonist, GLP-1R”, “with GCG-R” for “with GLP-1R”, “activity assay” for “activity test”, “evaluating GCG” for “evaluating GLP-1”, “expressing GCG-R” for “expressing GLP-1R”

T3 sequence (P47871 26-477, species assumed): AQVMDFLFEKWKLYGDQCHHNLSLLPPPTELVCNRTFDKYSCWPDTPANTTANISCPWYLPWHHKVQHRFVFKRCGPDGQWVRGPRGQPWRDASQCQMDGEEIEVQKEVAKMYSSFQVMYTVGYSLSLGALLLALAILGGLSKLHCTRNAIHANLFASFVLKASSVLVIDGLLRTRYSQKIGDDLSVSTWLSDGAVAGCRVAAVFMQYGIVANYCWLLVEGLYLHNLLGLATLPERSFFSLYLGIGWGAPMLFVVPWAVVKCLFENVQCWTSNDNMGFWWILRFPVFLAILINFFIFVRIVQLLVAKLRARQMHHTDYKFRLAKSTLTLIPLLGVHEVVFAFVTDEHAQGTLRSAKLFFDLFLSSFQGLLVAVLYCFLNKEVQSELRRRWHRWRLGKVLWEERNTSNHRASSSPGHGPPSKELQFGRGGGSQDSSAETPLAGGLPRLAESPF
T1 sequence (P43220 24-463, species assumed): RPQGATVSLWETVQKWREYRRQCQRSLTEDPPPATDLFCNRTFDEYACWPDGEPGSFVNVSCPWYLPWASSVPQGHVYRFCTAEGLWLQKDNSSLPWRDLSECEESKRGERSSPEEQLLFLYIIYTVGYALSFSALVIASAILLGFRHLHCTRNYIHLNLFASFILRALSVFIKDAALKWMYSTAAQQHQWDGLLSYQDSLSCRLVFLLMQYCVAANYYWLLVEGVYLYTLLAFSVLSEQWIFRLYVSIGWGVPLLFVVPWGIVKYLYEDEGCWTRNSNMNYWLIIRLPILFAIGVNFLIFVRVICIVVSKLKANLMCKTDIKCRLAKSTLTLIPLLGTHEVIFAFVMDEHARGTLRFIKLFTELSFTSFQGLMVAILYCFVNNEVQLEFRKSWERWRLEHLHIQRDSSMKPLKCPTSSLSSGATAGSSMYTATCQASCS

CC[C@H](C)[C@H](NC(=O)[C@H](Cc1ccccc1)NC(=O)[C@H](C)NC(=O)C(C)(C)NC(=O)[C@H](CCC(N)=O)NC(=O)[C@H](C)NC(=O)[C@H](CCCCNC(=O)COCCOCCNC(=O)CC[C@H](NC(=O)CCCCCCCCCCCCCCCCCCC(=O)O)C(=O)O)NC(=O)[C@H](CCCCN)NC(=O)[C@H](CC(=O)O)NC(=O)[C@H](CC(C)C)NC(=O)C(C)(CC(C)C)NC(=O)[C@@H](NC(=O)[C@H](CO)NC(=O)[C@H](Cc1ccc(O)cc1)NC(=O)[C@H](CC(=O)O)NC(=O)[C@H](CO)NC(=O)[C@@H](NC(=O)C(C)(Cc1ccccc1)NC(=O)[C@@H](NC(=O)CNC(=O)[C@H](CCC(N)=O)NC(=O)C(C)(C)NC(=O)[C@@H](N)Cc1ccc(O)cc1)[C@@H](C)O)[C@@H](C)O)[C@@H](C)CC)C(=O)N[C@@H](CCC(=O)O)C(=O)N[C@@H](Cc1ccc(O)cc1)C(=O)N[C@@H](CC(C)C)C(=O)N[C@@H](CC(C)C)C(=O)N[C@@H](CCC(=O)O)C(=O)NCC(=O)NCC(=O)N1CCC[C@H]1C(=O)N[C@@H](CO)C(=O)N[C@@H](CO)C(=O)NCC(=O)N[C@@H](C)C(=O)N1CCC[C@H]1C(=O)N1CCC[C@H]1C(=O)N1CCC[C@H]1C(=O)N[C@@H](CO)C(N)=O (stereo partly drawn) [Compound 1]
EC50 [1]: 0.0502 nM | EC50 [2]: 0.0226 nM | EC50 [3]: 0.171 nM

CC[C@H](C)[C@H](NC(=O)[C@H](Cc1ccccc1)NC(=O)[C@H](C)NC(=O)C(C)(C)NC(=O)[C@H](CCC(N)=O)NC(=O)[C@H](C)NC(=O)[C@H](CCCCNC(=O)COCCOCCNC(=O)CC[C@H](NC(=O)CCCCCCCCCCCCCCCCCCC(=O)O)C(=O)O)NC(=O)[C@H](CCCCN)NC(=O)[C@H](CC(=O)O)NC(=O)[C@H](CC(C)C)NC(=O)C(C)(CC(C)C)NC(=O)[C@@H](NC(=O)[C@H](CO)NC(=O)[C@H](Cc1ccc(O)cc1)NC(=O)[C@H](CC(=O)O)NC(=O)[C@H](CO)NC(=O)[C@@H](NC(=O)C(C)(Cc1ccccc1F)NC(=O)[C@@H](NC(=O)CNC(=O)[C@H](CCC(N)=O)NC(=O)C(C)(C)NC(=O)[C@@H](N)Cc1ccc(O)cc1)[C@@H](C)O)[C@@H](C)O)[C@@H](C)CC)C(=O)N[C@@H](CCC(=O)O)C(=O)N[C@@H](Cc1ccc(O)cc1)C(=O)N[C@@H](CC(C)C)C(=O)N[C@@H](CC(C)C)C(=O)N[C@@H](CCC(=O)O)C(=O)NCC(=O)NCC(=O)N1CCC[C@H]1C(=O)N[C@@H](CO)C(=O)N[C@@H](CO)C(=O)NCC(=O)N[C@@H](C)C(=O)N1CCC[C@H]1C(=O)N1CCC[C@H]1C(=O)N1CCC[C@H]1C(=O)N[C@@H](CO)C(N)=O (stereo partly drawn) [Compound 5]
EC50 [1]: 0.0454 nM | EC50 [2]: 0.0205 nM | EC50 [3]: 0.138 nM

CC[C@H](C)[C@H](NC(=O)[C@H](Cc1ccccc1)NC(=O)[C@H](C)NC(=O)C(C)(C)NC(=O)[C@H](CCC(N)=O)NC(=O)[C@H](C)NC(=O)[C@H](CCCCNC(=O)COCCOCCNC(=O)COCCOCCNC(=O)CC[C@H](NC(=O)CCCCCCCCCCCCCCCCCCC(=O)O)C(=O)O)NC(=O)[C@H](CCCCN)NC(=O)[C@H](CC(=O)O)NC(=O)[C@H](CC(C)C)NC(=O)C(C)(CC(C)C)NC(=O)[C@@H](NC(=O)[C@H](CO)NC(=O)[C@H](Cc1ccc(O)cc1)NC(=O)[C@H](CC(=O)O)NC(=O)[C@H](CO)NC(=O)[C@@H](NC(=O)C(C)(Cc1ccccc1)NC(=O)[C@@H](NC(=O)CNC(=O)[C@H](CCC(N)=O)NC(=O)C(C)(C)NC(=O)[C@@H](N)Cc1ccc(O)cc1)[C@@H](C)O)[C@@H](C)O)[C@@H](C)CC)C(=O)N[C@@H](CCC(=O)O)C(=O)N[C@@H](Cc1ccc(O)cc1)C(=O)N[C@@H](CC(C)C)C(=O)N[C@@H](CC(C)C)C(=O)N[C@@H](CCC(=O)O)C(=O)NCC(=O)NCC(=O)N1CCC[C@H]1C(=O)N[C@@H](CO)C(=O)N[C@@H](CO)C(=O)NCC(=O)N[C@@H](C)C(=O)N1CCC[C@H]1C(=O)N1CCC[C@H]1C(=O)N1CCC[C@H]1C(=O)N[C@@H](CO)C(N)=O (stereo partly drawn) [Compound 9]
EC50 [1]: 0.0612 nM | EC50 [2]: 0.0285 nM | EC50 [3]: 0.186 nM

CC[C@H](C)[C@H](NC(=O)[C@H](Cc1ccccc1)NC(=O)[C@H](C)NC(=O)C(C)(C)NC(=O)[C@H](CCC(N)=O)NC(=O)[C@H](C)NC(=O)[C@H](CCCCNC(=O)COCCOCCNC(=O)COCCOCCNC(=O)CC[C@H](NC(=O)CCCCCCCCCCCCCCCCCCC(=O)O)C(=O)O)NC(=O)[C@H](CCCCN)NC(=O)[C@H](CC(=O)O)NC(=O)[C@H](CC(C)C)NC(=O)C(C)(CC(C)C)NC(=O)[C@@H](NC(=O)[C@H](CO)NC(=O)[C@H](Cc1ccc(O)cc1)NC(=O)[C@H](CC(=O)O)NC(=O)[C@H](CO)NC(=O)[C@@H](NC(=O)C(C)(Cc1ccccc1F)NC(=O)[C@@H](NC(=O)CNC(=O)[C@H](CCC(N)=O)NC(=O)C(C)(C)NC(=O)[C@@H](N)Cc1ccc(O)cc1)[C@@H](C)O)[C@@H](C)O)[C@@H](C)CC)C(=O)N[C@@H](CCC(=O)O)C(=O)N[C@@H](Cc1ccc(O)cc1)C(=O)N[C@@H](CC(C)C)C(=O)N[C@@H](CC(C)C)C(=O)N[C@@H](CCC(=O)O)C(=O)NCC(=O)NCC(=O)N1CCC[C@H]1C(=O)N[C@@H](CO)C(=O)N[C@@H](CO)C(=O)NCC(=O)N[C@@H](C)C(=O)N1CCC[C@H]1C(=O)N1CCC[C@H]1C(=O)N1CCC[C@H]1C(=O)N[C@@H](CO)C(N)=O (stereo partly drawn) [Compound 11]
EC50 [1]: 0.0536 nM | EC50 [2]: 0.027 nM | EC50 [3]: 0.166 nM

CC[C@H](C)[C@H](NC(=O)[C@H](Cc1ccccc1)NC(=O)[C@H](C)NC(=O)C(C)(C)NC(=O)[C@H](CCC(N)=O)NC(=O)[C@H](C)NC(=O)[C@H](CCCCNC(=O)COCCOCCNC(=O)CC[C@H](NC(=O)CCCCCCCCCCCCCCCCCCC(=O)O)C(=O)O)NC(=O)[C@H](CCCCN)NC(=O)[C@H](CC(=O)O)NC(=O)[C@H](CC(C)C)NC(=O)[C@](C)(CC(C)C)NC(=O)[C@@H](NC(=O)[C@H](CO)NC(=O)[C@H](Cc1ccc(O)cc1)NC(=O)[C@H](CC(=O)O)NC(=O)[C@H](CO)NC(=O)[C@@H](NC(=O)[C@H](Cc1ccccc1)NC(=O)[C@@H](NC(=O)CNC(=O)[C@H](CCC(N)=O)NC(=O)C(C)(C)NC(=O)[C@@H](N)Cc1ccc(O)cc1)[C@@H](C)O)[C@@H](C)O)[C@@H](C)CC)C(=O)N[C@@H](CCC(=O)O)C(=O)N[C@@H](Cc1ccc(O)cc1)C(=O)N[C@@H](CC(C)C)C(=O)N[C@@H](CC(C)C)C(=O)N[C@@H](CCC(=O)O)C(=O)NCC(=O)NCC(=O)N1CCC[C@H]1C(=O)N[C@@H](CO)C(=O)N[C@@H](CO)C(=O)NCC(=O)N[C@@H](C)C(=O)N1CCC[C@H]1C(=O)N1CCC[C@H]1C(=O)N1CCC[C@H]1C(=O)N[C@@H](CO)C(N)=O [retatrutide, Retatrutide, reference compound]
EC50 [1]: 0.046 nM | EC50 [2]: 0.0342 nM | EC50 [3]: 0.523 nM

— patent EP4806911A1, “TRIPLE AGONIST COMPOUND” (Chengdu Aoda Biotechnology Co., Ltd, priority 2023, dated 2025)
